Data: article PMC4236014, “Intestine-Targeted DGAT1 Inhibition Improves Obesity and Insulin Resistance without Skin Aberrations in Mice” (PLoS ONE, 2014)
Values joined by “and” are separate entries in the source; they are usually repeats but may differ in a detail not shown here. Equal values may be shown once. “Also recorded” adds a separate entry of the source.

Experiments:
[1] = Log D (lipophilicity); format: physicochemical
[2] = mouse plasma protein binding; format: in vitro ADME
[3] = tested on: HT-29 human colon cells; assay: Triglyceride synthesis in HT-29 cells (14C oleic acid incorporation); format: cell-based; settings: Compound A 0.3 to 3 µM, Compound B 0.1 to 3 µM
Description: (§1) The HT-29 cell line (American Type Culture Collection, Manassas, VA) was maintained in the McCoy’s 5A medium (Life Technologies, Carlsbad, CA) containing 10% fetal bovine serum. The HepG2 cell line (American Type Culture Collection) was maintained in the Dulbecco’s Modified Eagle Medium (Sigma-Aldrich, St. Louis, MO) containing 10% fetal bovine serum. For the experiments, the HT-29 cells were plated in 12-well plates at 3×10^5 cells, the HepG2 cells were plated in 12-well plates at 5×10^5 cells. The cells were cultured in serum-free media for 24 h, and incubated with a compound and oleic acid-albumin (Sigma-Aldrich) solubilized in dimethyl sulfoxide (final 0.1%) for 30 min. The triglyceride synthesis was initiated by the addition of ^14C oleic acid (0.2 µCi). The cells were washed in PBS and harvested into the organic phase using hexane:2-propanol (3∶2) 30 min after initiation of the triglyceride synthesis. The solvent was evaporated, the extracts were solubilized in chloroform, and lipids were separated via TLC. Incorporation of the radiolabel into the triglyceride fraction was analyzed using BAS2000 in triplicate. The IC50 of each compound was calculated using GraphPad Prism.

[4] = tested on: HepG2 human liver cells; assay: Triglyceride synthesis in HepG2 cells (14C oleic acid incorporation); format: cell-based; settings: Compound A 0.3 to 3 µM, Compound B 0.1 to 3 µM
Description: as §1

[5] = Compound distribution in mice (plasma, skin, intestine) after oral 30 mg/kg; format: in vivo, C57BL/6J mice; settings: for Tmax / concentration at 24 h / Kp / Cmax: C57BL/6J, mouse; for Tmax: in vivo; for concentration at 24 h: intestine, 24 h after administration, read-out: C 24 in intestine; for Kp: intestine/plasma, read-out: Intestine/Plasma ratio at T max; for Cmax: plasma, read-out: C max in plasma; for Cmax / C max in intestine / C max in skin: 3 mice
Description: Exposure was analyzed using blood, skin, and intestine samples from the C57BL/6J mice orally treated with 30 mg/kg of a compound. At 1, 4, 8, and 24 h after the administration, mice were anesthetized with isoflurane, and blood, skin, and intestine samples were collected. Three mice were used in each group. The blood samples were collected with sodium heparin, subjected to centrifugation, and plasma samples were collected. The skin and the intestine were homogenized and centrifuged to collect samples. The compound concentrations in each tissue sample with values equal to or greater than the lower limit of quantification (LLOQ; 0.005 µg/ml) were used for analyses (HPLC-MS/MS: Shiseido, Tokyo, Japan, Thermofisher Scientific, Waltham, MA).

[6] = tested on: skin of diet-induced-obese (DIO) mice; assay: Effects on the skin in diet-induced-obese (DIO) mice, 4-week treatment, histopathology; format: in vivo, C57BL/6J mice; settings: 4 weeks; for skin aberrations (histopathology): oral, 30 mg/kg Compound A once daily, 30 mg/kg Compound B twice daily, 30 mg/kg
Description: After 10 weeks on high-fat diet, mice became obese (36±0.24 g). […] After 4 weeks of the treatment, all the animals were sacrificed. The skin (dorsolateral lesion) was removed and then fixed in 10% neutral buffered formalin, processed, embedded in paraffin, cut into thin sections and stained with Hematoxylin and Eosin. Histopathological examinations were performed. The size of the sebaceous glands were measured using WinROOF (Mitani Corporation, Tokyo, Japan).

[7] = tested on: mouse skin homogenates; assay: Triglyceride synthesis in mouse skin homogenates; format: biochemical
[8] = biological target: T1, mouse DGAT1 (Mus musculus, UniProt Q9Z2A7); assay: DGAT1 enzyme assay (mouse DGAT1 in Sf9 insect microsomes, 14C decanoyl CoA); format: biochemical; settings: enzyme expressed in insect microsomes; read-out: mDGAT1 IC50
T1 construct: made in house; host or cells: Sf9 insect cells (baculovirus)
T1 sequence (Q9Z2A7 1-498): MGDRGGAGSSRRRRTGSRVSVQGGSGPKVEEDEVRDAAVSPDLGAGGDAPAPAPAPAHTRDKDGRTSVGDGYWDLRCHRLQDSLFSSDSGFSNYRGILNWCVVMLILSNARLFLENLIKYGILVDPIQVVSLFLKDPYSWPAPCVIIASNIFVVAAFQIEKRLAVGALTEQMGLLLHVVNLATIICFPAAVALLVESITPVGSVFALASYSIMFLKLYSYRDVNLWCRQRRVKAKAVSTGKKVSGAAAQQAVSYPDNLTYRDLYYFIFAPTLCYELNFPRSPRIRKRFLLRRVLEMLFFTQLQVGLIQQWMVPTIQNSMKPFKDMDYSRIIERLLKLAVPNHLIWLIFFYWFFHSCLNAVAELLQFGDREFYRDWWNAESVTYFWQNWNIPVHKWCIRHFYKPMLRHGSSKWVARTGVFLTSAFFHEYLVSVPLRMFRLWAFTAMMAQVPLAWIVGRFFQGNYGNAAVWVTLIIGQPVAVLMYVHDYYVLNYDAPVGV
Description: (§2) The effects of the DGAT1 inhibitors were assessed using human (BC015762 from HeLa cell) and mouse DGAT1 (NM_010046 from mouse testis) in Sf9 insect microsomes. […] The Sf9 cells were homogenized and centrifuged at 600 g for 20 min. Thereafter, the supernatant was centrifuged at 10000 g for 1 h and the precipitate was collected as the […].
(§3) The mixture was incubated at room temperature for 45 min. The reaction was stopped by adding 0.5 M HCl and the incubated mixture was filtered using MultiscreenHTS-FB (Millipore, Billerica, MA). The human DGAT1 activity was quantified by counting the radioactivity of synthesized ^14C triglycerides by the Microbeta scintillation counter (PerkinElmer, Waltham, MA) in duplicate. […] Mouse DGAT1 enzyme assays were carried out in the same way.

[9] = biological target: T2, human DGAT1 (Homo sapiens, UniProt O75907); assay: DGAT1 enzyme assay (human DGAT1 in Sf9 insect microsomes, 14C decanoyl CoA); format: biochemical; settings: enzyme expressed in insect microsomes; read-out: hDGAT1 IC50
T2 construct: made in house; host or cells: Sf9 insect cells (baculovirus)
T2 sequence (O75907 1-488): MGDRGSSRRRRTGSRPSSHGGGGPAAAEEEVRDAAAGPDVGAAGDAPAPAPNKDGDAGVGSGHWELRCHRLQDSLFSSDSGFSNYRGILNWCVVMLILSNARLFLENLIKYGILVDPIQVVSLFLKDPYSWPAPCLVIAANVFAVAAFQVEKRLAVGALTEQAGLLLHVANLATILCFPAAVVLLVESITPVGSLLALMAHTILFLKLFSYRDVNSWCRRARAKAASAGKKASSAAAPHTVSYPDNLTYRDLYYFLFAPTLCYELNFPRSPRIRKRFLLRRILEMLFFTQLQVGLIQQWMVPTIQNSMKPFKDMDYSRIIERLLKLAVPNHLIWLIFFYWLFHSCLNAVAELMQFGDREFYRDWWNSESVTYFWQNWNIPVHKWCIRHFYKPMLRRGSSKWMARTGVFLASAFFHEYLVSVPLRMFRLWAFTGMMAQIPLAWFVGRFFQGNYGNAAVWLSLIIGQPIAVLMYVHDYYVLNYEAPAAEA
Description: as §2, §3

[10] = tested on: postprandial hyperlipidemia in mice; assay: Postprandial hyperlipidemia in mice (corn oil load); format: in vivo, C57BL/6J mice
Description: Eight-week-old male C57BL/6J mice were divided into treatment groups, each consisting of 7–8 mice, based on the body weight for the purpose of simplification of dose calculation. […] Blood samples were collected 1, 2, and 3 h later, and the plasma triglyceride level was determined by using WAKO TG H (Wako, Osaka, Japan). The area under the curve (AUC) of plasma triglyceride (AUCtriglyceride) was calculated.

[11] = tested on: glucagon-like peptide-1 (GLP-1) secretion; assay: GLP-1 secretion in mice after corn oil; format: in vivo; settings: oral 10 and 30 mg/kg, 2 h after corn oil
Description: Mice were divided into treatment groups, each consisting of 6–8 mice, based on the body weight for the purpose of simplification of dose calculation. […] Blood samples were collected 2 h later, and the plasma GLP-1 level was determined by using Glucagon Like Peptide-1 (Active) ELISA Kit (Linco Research, Inc., St. Charles, MO).

[12] = tested on: diet-induced-obese (DIO) mice; assay: Long-time (4-week) treatment in DIO mice; format: in vivo, C57BL/6J mice; settings: 4 weeks
Description: The DIO mice were fed with high-fat diet during the 4-week treatment period. Mice were fasted for 4 hours prior to blood collection. Plasma glucose, insulin, triglyceride, and free fatty acid concentrations were determined by using Glucose CII Test Wako (Wako), ultra sensitive mouse ELISA (Morinaga, Yokohama, Japan), L type WAKO TG H, and HA test WAKO NEFA (Wako), respectively.

| SMILES | logD [1] | fraction unbound [2] | inhibition of cellular triglyceride synthesis [3] | inhibition of cellular triglyceride synthesis [4] | Tmax [5] [h] | concentration at 24 h ([5]; means ± SD) [µM] | Kp ([5]; means ± SD) | Cmax ([5]; means ± SD) [µM] | C max in intestine ([5]; means ± SD) [µmol/kg] | C max in skin ([5]; means ± SD) [µmol/kg] | skin aberrations (histopathology) [6] | inhibition of triglyceride synthesis [7] | also measured |
| --- | --- | --- | --- | --- | --- | --- | --- | --- | --- | --- | --- | --- | --- |
| CC1(C)Oc2ncnc(N)c2N=C1c1ccc([C@H]2CC[C@H](CC(=O)O)CC2)cc1 [Compound A, 4-[4-(4-amino-2,7,7-trimethyl-7H-pyrimido[4,5-b][1], [4]oxazin-6-yl)phenyl]-trans-Cyclohexaneacetic acid] | < 0.9 | 0.032 | significant inhibition was observed at 1 and 3 µM | at all the concentrations tested | 1 | 24 ± 1.6 | 0.32 | 240 ± 59 | 77 ± 37 | 14 ± 0.62 | skin aberrations derived from atrophy of the sebaceous gland; also recorded: moderate skin aberrations | inhibited the cellular triglyceride synthesis | injurious or inflammatory changes of the skin ([6]; 30 mg/kg once daily): no injurious or inflammatory changes; recovery of skin aberrations after compound withdrawal ([6]; 30 mg/kg once daily, then withdrawal): 2 weeks |
| O=C(Nc1ccccc1)Nc1ccc(-c2ccc(C(=O)[C@@H]3CCC[C@H]3C(=O)O)cc2)cc1 [Compound B, (1R, 2R)-2-[[4′-[[(Phenylamino)carbonyl]amino][1,1′-biphenyl]-4-yl]carbonyl]cyclopentanecarboxylic acid] | < 0.9 | 0.001 | significant inhibition was observed at 1 and 3 µM | at all the concentrations tested | 1 | 19 ± 3.7 | 10 | 9.1 ± 2.3 | 92 ± 36 | 1.3 ± 0.51 | changes in the skin were not observed; also recorded: no skin aberrations | inhibited the cellular triglyceride synthesis | IC50 [8]: 15.5 nM; IC50 [9]: 8.4 nM; skin/IC50 (C max in skin/mDGAT1 IC50) ([5]; means ± SD): 0.084±0.033; Intestine/Plasma ratio at T max ([5]; means ± SD, 30 mg/kg): 10±2.8; Intestine/Skin ratio at T max ([5]; means ± SD, 30 mg/kg): 74 and 74±8.4; plasma triglyceride levels after corn oil ([10]; oral 0.3, 1, 3 or 10 mg/kg 12 h before 3 ml/kg corn oil): reduced plasma triglyceride levels with a dose-dependent tendency; dose of maximum efficacy on plasma triglyceride ([10]; oral, 12 h before corn oil): 10 mg/kg; plasma GLP-1 levels after corn oil administration [11]: increased plasma glucagon-like peptide-1 (GLP-1) levels; fatty liver (histological analysis) ([12]; 10 or 30 mg/kg): attenuated fatty liver; body weight gain ([12]; oral 1, 3, 10 or 30 mg/kg twice daily): significant attenuation and significant reduction were observed at 10 mg/kg and 30 mg/kg, respectively; concentration of total-cholesterol in the liver ([12]; oral twice daily): significant reduction was observed at 30 mg/kg; concentration of triglyceride in the liver ([12]; oral twice daily): significant reduction was observed at 30 mg/kg; liver weight ([12]; oral twice daily): lack of differences in the liver weight among the groups; plasma glucose levels ([12]; oral twice daily): significant reduction was observed at 30 mg/kg; plasma insulin concentrations ([12]; oral twice daily): tended to decrease; weight of epididymal fat ([12]; oral twice daily): significant reduction was observed at 30 mg/kg; weight of mesenteric fat ([12]; oral twice daily): significant reduction was observed at 30 mg/kg |
